Reference: publication PMC13128454, “Mutant p53 protein accumulation is selectively targetable by proximity-inducing drugs” (Nature Chemical Biology, 2025)
Where “and” joins values, the source holds several entries; their conditions need not be identical. Equal entries are not always repeated. Where two headings read alike, the source gives them in different places.

Key:
Type in all cases: cell-based
[1] = tested on: Halo–p53-Y220C ΔTAD–mCherry 293T cells; test: caspase 3/7 glo; settings: for mean_norm (caspase 3/7 glo): Cell_Line Y220C, normalized to Concentration 0; for raw caspase 3/7 glo signal, single replicate: Y220C
Protocol: (§1) Cells were plated in 384-well plates (typically 1,500 cells per well) with varying concentrations of compounds with a total volume of 50 μl per well. After 1 day, caspase 3/7 glo reagent (Promega) was added following the manufacturer’s protocol and read out using an EnVision 2105 multimode plate reader.

parental 293T cells [2] = test: caspase 3/7 glo; settings: for mean_norm (caspase 3/7 glo): Cell_Line WT, normalized to Concentration 0; for raw caspase 3/7 glo signal, single replicate: WT
Protocol: as §1

parental 293T cells [3] = test: cell-cycle analysis (DNA content, DAPI flow cytometry); settings: WT, 1 day
Protocol: (§2) Cells were split into a 10-cm dish at low confluency (20%) and grown overnight. Cells were synchronized using overnight treatment with palbociclib (150 nM), washed and split into a six-well plate for treatment with compound for 24 h. Cells were harvested by trypsinization, washed twice with cold 1× PBS, fixed by dropwise addition of ice-cold 70% ethanol while vortexing and incubated overnight (4 °C). Fixed samples were centrifuged at 1,000g for 5 min and 70% ethanol was removed. Cells were washed twice with 1× PBS + 1% BSA before DNA labeling with 1 µg ml^−1 DAPI for 10 min at room temperature, before being analyzed for DNA content by flow cytometry (Beckman CytoFLEX LX).

[4] = tested on: Halo–p53-Y220C ΔTAD–mCherry 293T cells; test: as above; set-up: 4N / 8N / Right_of_Gate1 (replicates) / Right_of_Gate2 (replicates) / 2N: unit not given here; settings: Y220C, 1 day
Protocol: as §2

[5] = CellTiter-Glo cell viability; settings: human, p53_construct WT, CTG 4 days, read-out: mean (normalized viability)
Protocol: Cells were plated in 384-well plates (typically 1,500 cells per well) with varying concentrations of compounds, with a total volume of 50 μl per well. CTG reagent was added (25 μl) to the solutions, mixed and read out using an EnVision 2105 multimode plate reader.

parental 293T cells [6] = test: annexin–PI staining; settings: for P3_avg (P3 = early apoptotic) / P5_avg (P5 = late apoptotic): Cell_Line WT, proportion of cells; for avgprop_P3 / avgprop_P4 / avgprop_P5 / avgprop_P2 / P2_viable / P3_AnnexinPos_PIneg / P4_PIpos_AnnexinNeg / P5_PIpos_Annexinpos / prop_P3 / prop_P4 / prop_P5 / prop_P2: WT; for avgprop_P3: average proportion AnnexinPos PIneg; for avgprop_P4: average proportion PIpos AnnexinNeg; for avgprop_P5: average proportion PIpos Annexinpos; for avgprop_P2: average proportion viable; for P2_viable / P3_AnnexinPos_PIneg / P4_PIpos_AnnexinNeg / P5_PIpos_Annexinpos: event count; for P2_viable / P3_AnnexinPos_PIneg / P4_PIpos_AnnexinNeg / P5_PIpos_Annexinpos / prop_P3 / prop_P4 / prop_P5 / prop_P2: single replicate; for prop_P3: proportion AnnexinPos PIneg; for prop_P4: proportion PIpos AnnexinNeg; for prop_P5: proportion PIpos Annexinpos; for prop_P2: proportion viable
Protocol: Cells were plated in six-well plates and treated with varying concentrations of compounds for 1 day. Cells were stained with annexin V–AF488 and PI following the manufacturer’s instructions (Thermo Fisher, V13241) and analyzed by flow cytometry (Beckman CytoFLEX LX), using untreated cells to establish gates.

[7] = Conc 0.38 (unit not given; p53-01 in μM, BI2536 in nM)
[8] = Conc 0.75 (unit not given; p53-01 in μM, BI2536 in nM)
[9] = Conc 1.50 (unit not given; p53-01 in μM, BI2536 in nM)
[10] = Conc 10.00 (unit not given; per b27 BI2536 in nM)

**Q.** Which results are given for `CC[C@@H]1C(=O)N(C)c2cnc(Nc3ccc(C(=O)NC4CCN(C)CC4)cc3OC)nc2N1C1CCCC1` [BI2536]?
**A.** mean_norm (caspase 3/7 glo) ([1]; Concentration 0.0195312): 0.7877; mean_norm (caspase 3/7 glo) ([1]; Concentration 0.0390625): 0.7982; mean_norm (caspase 3/7 glo) ([1]; Concentration 0.078125): 0.8973; mean_norm (caspase 3/7 glo) ([1]; Concentration 0.15625): 0.6969; mean_norm (caspase 3/7 glo) ([1]; Concentration 0.3125): 0.7125; mean_norm (caspase 3/7 glo) ([1]; Concentration 0.625): 0.7879; mean_norm (caspase 3/7 glo) ([1]; Concentration 1.25): 1.419; mean_norm (caspase 3/7 glo) ([1]; Concentration 2.5): 1.997; mean_norm (caspase 3/7 glo) ([1]; Concentration 5): 1.954; mean_norm (caspase 3/7 glo) ([1]; Concentration 10): 2.025; raw caspase 3/7 glo signal, single replicate ([1]; Concentration 19.5312): 115256 and 127200 and 115855 and 132591; raw caspase 3/7 glo signal, single replicate ([1]; Concentration 39.0625): 137775 and 105993 and 131607 and 122061; raw caspase 3/7 glo signal, single replicate ([1]; Concentration 78.125): 135249 and 137668 and 143467 and 142866; raw caspase 3/7 glo signal, single replicate ([1]; Concentration 156.25): 101297 and 110278 and 108541 and 114189; raw caspase 3/7 glo signal, single replicate ([1]; Concentration 312.5): 98096 and 116170 and 98914 and 130859; raw caspase 3/7 glo signal, single replicate ([1]; Concentration 625): 117128 and 121353 and 128759 and 123804; raw caspase 3/7 glo signal, single replicate ([1]; Concentration 1250): 212391 and 226804 and 198553 and 246616; raw caspase 3/7 glo signal, single replicate ([1]; Concentration 2500): 314760 and 286983 and 322612 and 319985; raw caspase 3/7 glo signal, single replicate ([1]; Concentration 5000): 280409 and 304325 and 302507 and 330408; raw caspase 3/7 glo signal, single replicate ([1]; Concentration 10000): 320499 and 297797 and 322913 and 320880; mean_norm (caspase 3/7 glo) (parental 293T cells [2]; Concentration 0.0195312): 0.9498; mean_norm (caspase 3/7 glo) (parental 293T cells [2]; Concentration 0.0390625): 0.9355; mean_norm (caspase 3/7 glo) (parental 293T cells [2]; Concentration 0.078125): 1.009; mean_norm (caspase 3/7 glo) (parental 293T cells [2]; Concentration 0.15625): 0.7951; mean_norm (caspase 3/7 glo) (parental 293T cells [2]; Concentration 0.3125): 0.7961; mean_norm (caspase 3/7 glo) (parental 293T cells [2]; Concentration 0.625): 0.9439; mean_norm (caspase 3/7 glo) (parental 293T cells [2]; Concentration 1.25): 1.163; mean_norm (caspase 3/7 glo) (parental 293T cells [2]; Concentration 2.5): 1.635; mean_norm (caspase 3/7 glo) (parental 293T cells [2]; Concentration 5): 1.96; mean_norm (caspase 3/7 glo) (parental 293T cells [2]; Concentration 10): 2.136; raw caspase 3/7 glo signal, single replicate (parental 293T cells [2]; Concentration 19.5312): 101820 and 113248 and 111453 and 123771; raw caspase 3/7 glo signal, single replicate (parental 293T cells [2]; Concentration 39.0625): 126417 and 91473 and 129554 and 96056; raw caspase 3/7 glo signal, single replicate (parental 293T cells [2]; Concentration 78.125): 125458 and 106940 and 132813 and 113259; raw caspase 3/7 glo signal, single replicate (parental 293T cells [2]; Concentration 156.25): 92236 and 94370 and 93114 and 97215; raw caspase 3/7 glo signal, single replicate (parental 293T cells [2]; Concentration 312.5): 90006 and 94305 and 93528 and 99564; raw caspase 3/7 glo signal, single replicate (parental 293T cells [2]; Concentration 625): 118546 and 104034 and 117323 and 107564; raw caspase 3/7 glo signal, single replicate (parental 293T cells [2]; Concentration 1250): 131108 and 131356 and 152167 and 136802; raw caspase 3/7 glo signal, single replicate (parental 293T cells [2]; Concentration 2500): 182654 and 187485 and 215491 and 189535; raw caspase 3/7 glo signal, single replicate (parental 293T cells [2]; Concentration 5000): 226831 and 221170 and 240802 and 240601; raw caspase 3/7 glo signal, single replicate (parental 293T cells [2]; Concentration 10000): 259590 and 240701 and 269097 and 243095; 2N (parental 293T cells [3]; [7]): 60.20; 4N (parental 293T cells [3]; [7]): 37.88; Right_of_Gate1 (replicates) (parental 293T cells [3]; [7]): 39.80 and 40.72 and 40.28; Right_of_Gate2 (replicates) (parental 293T cells [3]; [7]): 1.92 and 1.75 and 1.63; 2N (parental 293T cells [3]; [8]): 60.97; 4N (parental 293T cells [3]; [8]): 37.16; Right_of_Gate1 (replicates) (parental 293T cells [3]; [8]): 39.03 and 39.73 and 39.74; Right_of_Gate2 (replicates) (parental 293T cells [3]; [8]): 1.87 and 1.62 and 1.66; 2N (parental 293T cells [3]; [9]): 59.07; 4N (parental 293T cells [3]; [9]): 38.46; Right_of_Gate1 (replicates) (parental 293T cells [3]; [9]): 40.93 and 41.63 and 42.56; Right_of_Gate2 (replicates) (parental 293T cells [3]; [9]): 2.47 and 2.39 and 2.53; 2N (parental 293T cells [3]; [10]): 2.57; 4N (parental 293T cells [3]; [10]): 4.74; Right_of_Gate1 (replicates) (parental 293T cells [3]; [10]): 97.43 and 97.32 and 97.36; Right_of_Gate2 (replicates) (parental 293T cells [3]; [10]): 92.69 and 91.65 and 92.21; 2N [4, 7]: 59.64; 4N [4, 7]: 39.45; 8N [4, 7]: 0.91; Right_of_Gate1 (replicates) [4, 7]: 40.36 and 39.92 and 40.00; Right_of_Gate2 (replicates) [4, 7]: 0.91 and 0.89 and 1.00; 2N [4, 8]: 59.25; 4N [4, 8]: 40.16; 8N [4, 8]: 0.59; Right_of_Gate1 (replicates) [4, 8]: 40.75 and 40.54 and 40.62; Right_of_Gate2 (replicates) [4, 8]: 0.59 and 0.51 and 0.57; 2N [4, 9]: 58.82; 4N [4, 9]: 40.66; 8N [4, 9]: 0.52; Right_of_Gate1 (replicates) [4, 9]: 41.18 and 41.58 and 39.89; Right_of_Gate2 (replicates) [4, 9]: 0.52 (2×) and 0.50; 2N [4, 10]: 2.81; 4N [4, 10]: 3.65; 8N [4, 10]: 93.54; Right_of_Gate1 (replicates) [4, 10]: 97.19 and 96.75 and 95.65; Right_of_Gate2 (replicates) [4, 10]: 93.54 and 93.93 and 86.65; viability at 4 days ([5]; Compound_conc 0.0488281): 97%; viability at 4 days ([5]; Compound_conc 0.0976562): 111%; viability at 4 days ([5]; Compound_conc 0.195312): 98.9%; viability at 4 days ([5]; Compound_conc 0.390625): 103%; viability at 4 days ([5]; Compound_conc 0.78125): 103%; viability at 4 days ([5]; Compound_conc 1.5625): 105%; viability at 4 days ([5]; Compound_conc 3.125): 101%; viability at 4 days ([5]; Compound_conc 6.25): 80.9%; viability at 4 days ([5]; Compound_conc 12.5): 64.4%; viability at 4 days ([5]; Compound_conc 25): 62.4%; viability at 4 days ([5]; Compound_conc 50): 49.4%; viability at 4 days ([5]; Compound_conc 100): 42%; P3_avg (P3 = early apoptotic) (parental 293T cells [6]; Concentration 0.75): 0.04079; P5_avg (P5 = late apoptotic) (parental 293T cells [6]; Concentration 0.75): 0.01489; P3_avg (P3 = early apoptotic) (parental 293T cells [6]; Concentration 1.5): 0.1126; P5_avg (P5 = late apoptotic) (parental 293T cells [6]; Concentration 1.5): 0.03242; avgprop_P3 (parental 293T cells [6]; Concentration 0.75): 0.04079; avgprop_P4 (parental 293T cells [6]; Concentration 0.75): 0.03008; avgprop_P5 (parental 293T cells [6]; Concentration 0.75): 0.01489; avgprop_P2 (parental 293T cells [6]; Concentration 0.75): 0.9142; P2_viable (parental 293T cells [6]; Concentration 0.75): 2015 and 2037 and 2022; P3_AnnexinPos_PIneg (parental 293T cells [6]; Concentration 0.75): 93 and 83 and 95; P4_PIpos_AnnexinNeg (parental 293T cells [6]; Concentration 0.75): 62 and 58 and 80; P5_PIpos_Annexinpos (parental 293T cells [6]; Concentration 0.75): 28 and 35 and 36; prop_P3 (parental 293T cells [6]; Concentration 0.75): 0.04231 and 0.03751 and 0.04254; prop_P4 (parental 293T cells [6]; Concentration 0.75): 0.02821 and 0.02621 and 0.03583; prop_P5 (parental 293T cells [6]; Concentration 0.75): 0.01274 and 0.01582 and 0.01612; prop_P2 (parental 293T cells [6]; Concentration 0.75): 0.9167 and 0.9205 and 0.9055; avgprop_P3 (parental 293T cells [6]; Concentration 1.5): 0.1126; avgprop_P4 (parental 293T cells [6]; Concentration 1.5): 0.02945; avgprop_P5 (parental 293T cells [6]; Concentration 1.5): 0.03242; avgprop_P2 (parental 293T cells [6]; Concentration 1.5): 0.8255; P2_viable (parental 293T cells [6]; Concentration 1.5): 1572 and 1534 and 1608; P3_AnnexinPos_PIneg (parental 293T cells [6]; Concentration 1.5): 206 and 222 and 215; P4_PIpos_AnnexinNeg (parental 293T cells [6]; Concentration 1.5): 60 and 57 and 51; P5_PIpos_Annexinpos (parental 293T cells [6]; Concentration 1.5): 54 and 71 and 60; prop_P3 (parental 293T cells [6]; Concentration 1.5): 0.1089 and 0.1178 and 0.1112; prop_P4 (parental 293T cells [6]; Concentration 1.5): 0.03171 and 0.03025 and 0.02637; prop_P5 (parental 293T cells [6]; Concentration 1.5): 0.02854 and 0.03769 and 0.03102; prop_P2 (parental 293T cells [6]; Concentration 1.5): 0.8309 and 0.8142 and 0.8314
